Laboratory results taken from paper PMC11790956, “A microscale thermophoresis-based enzymatic RNA methyltransferase assay enables the discovery of DNMT2 inhibitors” (Communications Chemistry, 2025).
pIC50: −log10 of the molar value.

Key:
DNMT2 = biological target: T1, DNMT2 (Homo sapiens, UniProt O14717); assay: DNMT2 enzymatic split aptamer MST assay; format: biochemical
T1 construct: made in house
T1 sequence (O14717 1-391): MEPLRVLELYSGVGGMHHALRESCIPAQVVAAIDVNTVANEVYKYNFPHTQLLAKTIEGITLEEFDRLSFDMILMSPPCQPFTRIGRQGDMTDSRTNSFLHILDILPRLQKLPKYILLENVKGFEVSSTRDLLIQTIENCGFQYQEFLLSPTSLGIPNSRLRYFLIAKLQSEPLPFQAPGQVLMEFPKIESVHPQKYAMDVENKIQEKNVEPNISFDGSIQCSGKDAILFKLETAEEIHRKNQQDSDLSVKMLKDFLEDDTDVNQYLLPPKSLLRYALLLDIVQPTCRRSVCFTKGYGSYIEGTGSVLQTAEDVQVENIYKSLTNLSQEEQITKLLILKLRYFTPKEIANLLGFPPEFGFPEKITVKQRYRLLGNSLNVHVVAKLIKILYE
Protocol: The enzyme kinetics were characterized by calculating the Michaelis-Menten constant (KM or kcat) and inhibitory constants (IC50 resp. KI).
The final drug compound concentration was adjusted to 500 µM for the epigenetic drug library (Fig. 5) resp. 100 µM for the covalent compound library (Fig. 6), and the enzymatic reaction was incubated for 30 min at 25 °C. Subsequently, enzymatic reactions were terminated by the addition of 0.3% SDS, and the product SAH was quantified by the split aptamer MST assay (Figs. 5A, B, 6A).
For MTase assay detection by MST, enzyme reaction mixtures with a total volume of 10 µL per single treatment condition were prepared and incubated for the desired reaction times. Inhibitors were added from corresponding DMSO stocks to a final DMSO concentration of max. 5%. Afterward, reactions were quenched at a given reaction time by the addition of 1 µL sodium dodecyl sulfate (SDS, solution, 3% in water) per 10 µL reaction mixture and mixed well by pipetting. Subsequently, 1 µL of a 10× aptamer-containing detection master mix (200 mM Tris, pH 8.5, 200 mM MgCl2, 3 M NaCl, 10 mM urea, 0.2% Brij, 500 nM aptaSAH1, 500 nM aptaSAH2) was added to the quenched MTase reaction and incubated for 1 h at room temperature. Reaction mixtures were loaded directly to MST capillaries without further purification or sample processing.
MST experiments were carried out in at least technical triplicates using a Monolith NT.115 instrument (NanoTemper Technologies) using Monolith standard capillaries and the blue excitation laser setup. The instrument was calibrated according to the manufacturer’s instructions. General settings were applied for all MST experiments as follows: manual temperature control: 25 °C, fluorescence measurement before MST: 4 s, MST (IR laser) on: 20 s, fluorescence after MST: 2 s, delay: 25 s. The laser power was adjusted to optimize the signal-to-noise ratio and the fluorescence signal. LED and MST power settings were chosen individually for each sample by adjusting the LED power to yield fluorescence signals of at least 300 units (blue laser) or 3000 units (red laser) and the MST power to achieve an appropriate thermophoretic response (standard setting: medium MST power).

DNMT2-tRNA complex = biological target: T2, DNMT2-tRNA complex (Homo sapiens, UniProt O14717); assay: Electrophoretic mobility shift assay (EMSA) of the DNMT2-tRNA complex; format: binding; conditions: 500 µM compound, DNMT2 10 µM, tRNAAsp 5 µM
T2 construct: made in house
T2 sequence (O14717 1-391): T1 sequence (O14717 1-391)
Protocol: We speculated these hits might bind very weakly to the tRNA-DNMT2 interaction site and by this inhibit DNMT2 activity. To test this hypothesis, we performed an electrophoretic mobility shift assay (EMSA) using tRNA^Asp (5 µM) and DNMT2 (10 µM) compared to the tRNA sample in absence of the DNMT2 protein (SI Fig. 4)[33]. […] Subsequently, we treated the DNMT2-tRNA complex with all hit compounds at 500 µM and observed their potential to disrupt the complex.
DNMT2 (10 µM) was mixed with tRNA^Asp (5 µM) and treated with 500 µM of the respective screening hit compound in DNMT2 assay buffer (100 mM Tris-HCl, pH 8, 100 mM NH4OAc, 0.1 mM EDTA, 10 mM MgCl2, 10 mM DTT). Subsequently, reaction samples (each 5 µL) were loaded to a native 10% polyacrylamide gel and separated electrophoretically (1 h, 180 V) in 1x TBE. RNA was stained in situ with 1x GelRed and PAGE analysis was conducted by fluorescence scanning at an excitation wavelength of 532 nm (Amersham Typhoon 9400). Positive control: DNMT2+tRNA (band at high molecular weights); negative control: only tRNA (band at low molecular weights).
SI Figure 4. Electrophore?c mobility shi? assay (EMSA) to inves?gate the inﬂuence of screening hits on the DNMT2-tRNA complex forma?on. D NMT2 (10 µ M ) was mixe d w it h t RNAAsp (5 µM) and treated with 50 0 µM of the respec?ve screening hit compound in DNMT2 assay buﬀer. All reac?on samples (each 5 µL) were loaded to a na?ve 10% polyacr ylamide gel and separated electrophore?cally (1 h, 1 80 V) in 1x TBE. RNA was stained in situ with 1x GelRed and PAGE analysis was conducted by ﬂuorescence scanning at an excita?on wavelength of 532 nm (Amersham Typhoon 9400). Po s i ? ve control: DNMT2+tRNA (band at high molecular weights); nega?ve control: only tRNA (band at low

NSUN2 = biological target: T3, NSUN2 (Homo sapiens, UniProt Q08J23); assay: NSUN2 enzymatic split aptamer MST assay (selectivity panel); format: biochemical; conditions: 500 µM of hit compound, Fig. 5D
T3 construct: made in house
Excerpt: Next, we investigated the target selectivity of all hit compounds by inhibition experiments using the MTases characterized in this study (DNMT2, METTL3/14, TrmD, and NSUN2) as a selectivity panel. […] While Cpd3 (alexidine) could be identified as a DNMT2 inhibitor during MST- and FP- experiments, the ligand’s hydrophobic nature raised the concern this compound might be an aggregator of DNMT2. To exclude this possibility, we investigated the reversibility of alexidine binding using the FP displacement assay and separation of the alexidine ligand by small-scale size-exclusion chromatography (SEC)[34].
NSUN2: 50 mM Tris-HCl, pH 7.5, 5 mM EDTA, 5 mM MgCl2, 1.5 mM DTT. 200 nM NSUN2, 1 µM SAM, 250 ng/µL tRNA (total from E. coli). […]
MST experiments were carried out in at least technical triplicates using a Monolith NT.115 instrument (NanoTemper Technologies) using Monolith standard capillaries and the blue excitation laser setup. […] General settings were applied for all MST experiments as follows: manual temperature control: 25 °C, fluorescence measurement before MST: 4 s, MST (IR laser) on: 20 s, fluorescence after MST: 2 s, delay: 25 s. The laser power was adjusted to optimize the signal-to-noise ratio and the fluorescence signal. […] MST measurements were analyzed using the NT analysis software (version 1.5.41) and exported for statistical analysis and plotting in GraphPad Prism 7.01.

S. aureus TrmD = biological target: T4, S. aureus TrmD (Staphylococcus aureus, UniProt Q2FZ43); assay: S. aureus TrmD enzymatic split aptamer MST assay; format: biochemical; conditions: 500 µM of hit compound, Fig. 5D
T4 construct: made in house
T4 sequence (Q2FZ43 1-245): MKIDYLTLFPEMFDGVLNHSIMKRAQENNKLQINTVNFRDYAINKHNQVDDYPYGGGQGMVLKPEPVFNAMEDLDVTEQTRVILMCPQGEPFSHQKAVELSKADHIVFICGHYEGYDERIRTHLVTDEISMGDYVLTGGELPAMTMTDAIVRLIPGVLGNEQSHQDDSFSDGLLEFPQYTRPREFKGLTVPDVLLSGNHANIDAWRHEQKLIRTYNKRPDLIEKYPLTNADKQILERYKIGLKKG
Protocol: DNMT2 & S. aureus TrmD: 100 mM Tris-HCl, pH 8, 100 mM NH4OAc, 0.1 mM EDTA, 10 mM MgCl2, 10 mM DTT. For TrmD: 50 nM TrmD, 2 µM SAM, 1 µM tRNA^Leu.
For MTase assay detection by MST, enzyme reaction mixtures with a total volume of 10 µL per single treatment condition were prepared and incubated for the desired reaction times. Inhibitors were added from corresponding DMSO stocks to a final DMSO concentration of max. 5%. Afterward, reactions were quenched at a given reaction time by the addition of 1 µL sodium dodecyl sulfate (SDS, solution, 3% in water) per 10 µL reaction mixture and mixed well by pipetting. Subsequently, 1 µL of a 10× aptamer-containing detection master mix (200 mM Tris, pH 8.5, 200 mM MgCl2, 3 M NaCl, 10 mM urea, 0.2% Brij, 500 nM aptaSAH1, 500 nM aptaSAH2) was added to the quenched MTase reaction and incubated for 1 h at room temperature. […]

T3 sequence (Q08J23 whole entry, species assumed): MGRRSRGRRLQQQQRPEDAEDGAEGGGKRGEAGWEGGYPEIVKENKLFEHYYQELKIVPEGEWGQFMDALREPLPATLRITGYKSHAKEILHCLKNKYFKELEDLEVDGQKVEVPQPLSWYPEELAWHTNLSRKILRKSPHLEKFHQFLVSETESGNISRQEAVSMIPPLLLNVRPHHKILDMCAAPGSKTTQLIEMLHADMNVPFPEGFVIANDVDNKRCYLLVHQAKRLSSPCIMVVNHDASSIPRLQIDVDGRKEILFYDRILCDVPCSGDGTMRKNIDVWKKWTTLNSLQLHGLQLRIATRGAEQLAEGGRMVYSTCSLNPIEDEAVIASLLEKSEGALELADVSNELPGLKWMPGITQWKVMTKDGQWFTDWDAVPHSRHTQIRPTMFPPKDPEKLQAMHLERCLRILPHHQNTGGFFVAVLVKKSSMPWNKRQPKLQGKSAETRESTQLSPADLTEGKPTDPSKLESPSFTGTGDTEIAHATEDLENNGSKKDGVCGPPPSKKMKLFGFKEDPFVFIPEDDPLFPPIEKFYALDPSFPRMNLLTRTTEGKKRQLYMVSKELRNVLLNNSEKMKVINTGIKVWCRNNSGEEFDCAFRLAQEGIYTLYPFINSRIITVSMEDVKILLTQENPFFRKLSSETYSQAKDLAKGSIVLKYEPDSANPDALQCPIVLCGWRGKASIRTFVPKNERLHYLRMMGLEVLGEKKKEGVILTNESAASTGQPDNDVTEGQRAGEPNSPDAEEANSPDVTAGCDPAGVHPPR

inhibition at 100 µM (DNMT2; 100 µM compound, covalent library, 30 min at 25 °C, read-out: DNMT2 inhibition in primary screening): > 90%
pIC50 (DNMT2; MST-derived, 250 nM DNMT2, 5 µM tRNA, 0.9 µM SAM): 5.39
influence on DNMT2-tRNA complex formation (DNMT2-tRNA complex): do not inﬂuence the complex
inhibition of NSUN2 (selectivity panel) (NSUN2): did not inhibit
inhibition of TrmD (selectivity panel) (S. aureus TrmD): did not inhibit
SMILES: C=CC(=O)NC(=O)NC12CC3CC(CC(C3)C1)C2 [Cpd 11, 1-(adamantan-1-yl)-3-(prop-2-enoyl)urea]
